Laboratory results as given in ChEMBL document CHEMBL5154672, “Design and synthesis of HDAC inhibitors to enhance the therapeutic effect of diffuse large B-cell lymphoma by improving metabolic stability and pharmacokinetic characteristics” (Eur J Med Chem, 2022).
pIC50: −log10 of the molar value. Activity calls are given as the source filed them. The calls are words filed in the database; no cut-off is given here.

Experiments:
786-0 = assay: Antiproliferative activity against human 786-O cells incubated for 72 hrs by luminescence assay; assay type: functional, cell-based; conditions: 786-0, 72 h
[1] = Metabolic stability in mouse liver microsomes assessed as half life measured for 75 to 130 mins by LC-MS/MS analysis; assay type: ADME, Microsome; conditions: time 75-130 min
SU-DHL-2 = assay: Antiproliferative activity against human SUDHL2 cells incubated for 72 hrs by luminescence assay; assay type: functional, cell-based; conditions: SU-DHL-2, 72 h
MDA-MB-231 [2] = assay: Antiproliferative activity against human MDA-MB-231 cells incubated for 72 hrs by luminescence assay; assay type: functional, cell-based; conditions: MDA-MB-231, 72 h
[3] = Half life in ICR mouse at 25 mg/kg, po measured upto 24 hrs by LC-MS/MS analysis; assay type: ADME, organism-based; conditions: in vivo
SK-OV-3 = assay: Antiproliferative activity against human SK-OV-3 cells incubated for 72 hrs by luminescence assay; assay type: functional, cell-based; conditions: SK-OV-3, 72 h
[4] = Metabolic stability in human liver microsomes assessed as intrinsic clearance measured for 75 to 130 mins by LC-MS/MS analysis; assay type: ADME, Microsome; conditions: microsomes, time 75-130 min
TMD8 [5] = assay: Antiproliferative activity against human TMD8 cells assessed as remaining cell activity at 2 uM incubated for 72 hrs by luminescence assay relative to control; assay type: functional
HuT78 = assay: Antiproliferative activity against human HuT78 cells incubated for 72 hrs by luminescence assay; assay type: functional, cell-based; conditions: HuT78, 72 h
TMD8 [6] = assay: Antiproliferative activity against human TMD8 cells incubated for 72 hrs by luminescence assay; assay type: functional, cell-based; conditions: TMD8, 72 h
A549 [7] = assay: Antiproliferative activity against human A549 cells assessed as remaining cell activity at 2 uM incubated for 72 hrs by luminescence assay relative to control; assay type: functional
A549 [8] = assay: Antiproliferative activity against human A549 cells incubated for 72 hrs by luminescence assay; assay type: functional, cell-based; conditions: A549, 72 h
NCI-H460 = assay: Antiproliferative activity against human NCI-H460 cells incubated for 72 hrs by luminescence assay; assay type: functional, cell-based; conditions: NCI-H460, 72 h
MDA-MB-231 [9] = assay: Antiproliferative activity against human MDA-MB-231 cells assessed as remaining cell activity at 2 uM incubated for 72 hrs by luminescence assay relative to control; assay type: functional
CWR22R = assay: Antiproliferative activity against human 22Rv1 cells incubated for 72 hrs by luminescence assay; assay type: functional, cell-based; conditions: 22Rv1, 72 h
[10] = Metabolic stability in human liver microsomes assessed as half life measured for 75 to 130 mins by LC-MS/MS analysis; assay type: ADME, Microsome; conditions: microsomes, time 75-130 min
[11] = AUC (0 to infinity) in ICR mouse at 2 mg/kg, iv measured upto 24 hrs by LC-MS/MS analysis; assay type: ADME, organism-based; parameters: time < 24 hrs, dose 2 mg/kg, route iv; conditions: in vivo
MOLT-4 = assay: Antiproliferative activity against human MOLT-4 cells incubated for 72 hrs by luminescence assay; assay type: functional, cell-based; conditions: MOLT-4, 72 h
HT-29 = assay: Antiproliferative activity against human HT-29 cells incubated for 72 hrs by luminescence assay; assay type: functional, cell-based; conditions: HT-29, 72 h
[12] = Cmax in ICR mouse at 25 mg/kg, po measured upto 24 hrs by LC-MS/MS analysis; assay type: ADME, organism-based; parameters: time < 24 hrs, dose 25 mg/kg, route po; conditions: in vivo
[13] = Oral bioavailability in ICR mouse at 25 mg/kg measured upto 24 hrs by LC-MS/MS analysis; assay type: ADME, organism-based; conditions: in vivo
[14] = MRT in ICR mouse at 25 mg/kg, po measured upto 24 hrs by LC-MS/MS analysis; assay type: ADME, organism-based; conditions: in vivo
DOHH-2 = assay: Antiproliferative activity against human DOHH-2 cells incubated for 72 hrs by luminescence assay; assay type: functional, cell-based; conditions: DOHH-2, 72 h
COLO-678 = assay: Antiproliferative activity against human COLO-678 cells incubated for 72 hrs by luminescence assay; assay type: functional, cell-based; conditions: COLO-678, 72 h
[15] = AUC (0 to infinity) in ICR mouse at 25 mg/kg, po measured upto 24 hrs by LC-MS/MS analysis; assay type: ADME, organism-based; parameters: time < 24 hrs, dose 25 mg/kg, route po; conditions: in vivo
Rec1 = assay: Antiproliferative activity against human REC1 cells incubated for 72 hrs by luminescence assay; assay type: functional, cell-based; conditions: Rec1, 72 h
HCT-116 = assay: Antiproliferative activity against human HCT-116 cells assessed as remaining cell activity at 2 uM incubated for 72 hrs by luminescence assay relative to control; assay type: functional
CCRF-CEM = assay: Antiproliferative activity against human CCRF-CEM cells incubated for 72 hrs by luminescence assay; assay type: functional, cell-based
RS4-11 = assay: Antiproliferative activity against human RS4-11 cells incubated for 72 hrs by luminescence assay; assay type: functional, cell-based; conditions: RS4-11, 72 h
NCI-H441 = assay: Antiproliferative activity against human NCI-H441 cells incubated for 72 hrs by luminescence assay; assay type: functional, cell-based; conditions: NCI-H441, 72 h
Histone deacetylase 3 [16] = target: T1, Histone deacetylase 3 (Homo sapiens, UniProt O15379); assay: Inhibition of HDAC3 in human TMD8 cells assessed as histone H4 acetylation after 24 hrs by Western blot analysis; assay type: cell-based; conditions: dose 2.5-10 µM, DDE = dose-dependent effect
T1 sequence (O15379 whole entry): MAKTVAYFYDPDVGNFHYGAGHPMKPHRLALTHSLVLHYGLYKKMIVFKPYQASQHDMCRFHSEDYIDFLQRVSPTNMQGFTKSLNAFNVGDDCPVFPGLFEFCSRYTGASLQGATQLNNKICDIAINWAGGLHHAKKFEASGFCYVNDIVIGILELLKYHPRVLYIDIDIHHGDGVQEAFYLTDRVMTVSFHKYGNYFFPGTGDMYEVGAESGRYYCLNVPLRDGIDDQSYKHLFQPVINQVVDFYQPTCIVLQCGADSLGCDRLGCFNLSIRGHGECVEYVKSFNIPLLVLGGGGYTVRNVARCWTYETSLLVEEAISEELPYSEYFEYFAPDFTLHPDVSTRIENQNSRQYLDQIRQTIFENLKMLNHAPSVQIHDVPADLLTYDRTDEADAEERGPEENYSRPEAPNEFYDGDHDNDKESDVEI

DLBCL = assay: Cytotoxicity against human DLBCL cells assessed as cell growth inhibition; assay type: functional, cell-based
[17] = target: Histone deacetylase 5 (Homo sapiens) (UniProt Q9UQL6); assay: Inhibition of HDAC5 (unknown origin) assessed as remaining enzyme activity at 1 uM using Boc-(Trifluoroacetyl) Lysine-AMC fluorogenic peptide as substrate preincubated for 10 mins followed by substrate addition for 30 mins in presence of ATP by fluoroscence based assay relative to control; conditions: time 40.0 min
Histone deacetylase 5 (Homo sapiens), sequence (Q9UQL6 whole entry): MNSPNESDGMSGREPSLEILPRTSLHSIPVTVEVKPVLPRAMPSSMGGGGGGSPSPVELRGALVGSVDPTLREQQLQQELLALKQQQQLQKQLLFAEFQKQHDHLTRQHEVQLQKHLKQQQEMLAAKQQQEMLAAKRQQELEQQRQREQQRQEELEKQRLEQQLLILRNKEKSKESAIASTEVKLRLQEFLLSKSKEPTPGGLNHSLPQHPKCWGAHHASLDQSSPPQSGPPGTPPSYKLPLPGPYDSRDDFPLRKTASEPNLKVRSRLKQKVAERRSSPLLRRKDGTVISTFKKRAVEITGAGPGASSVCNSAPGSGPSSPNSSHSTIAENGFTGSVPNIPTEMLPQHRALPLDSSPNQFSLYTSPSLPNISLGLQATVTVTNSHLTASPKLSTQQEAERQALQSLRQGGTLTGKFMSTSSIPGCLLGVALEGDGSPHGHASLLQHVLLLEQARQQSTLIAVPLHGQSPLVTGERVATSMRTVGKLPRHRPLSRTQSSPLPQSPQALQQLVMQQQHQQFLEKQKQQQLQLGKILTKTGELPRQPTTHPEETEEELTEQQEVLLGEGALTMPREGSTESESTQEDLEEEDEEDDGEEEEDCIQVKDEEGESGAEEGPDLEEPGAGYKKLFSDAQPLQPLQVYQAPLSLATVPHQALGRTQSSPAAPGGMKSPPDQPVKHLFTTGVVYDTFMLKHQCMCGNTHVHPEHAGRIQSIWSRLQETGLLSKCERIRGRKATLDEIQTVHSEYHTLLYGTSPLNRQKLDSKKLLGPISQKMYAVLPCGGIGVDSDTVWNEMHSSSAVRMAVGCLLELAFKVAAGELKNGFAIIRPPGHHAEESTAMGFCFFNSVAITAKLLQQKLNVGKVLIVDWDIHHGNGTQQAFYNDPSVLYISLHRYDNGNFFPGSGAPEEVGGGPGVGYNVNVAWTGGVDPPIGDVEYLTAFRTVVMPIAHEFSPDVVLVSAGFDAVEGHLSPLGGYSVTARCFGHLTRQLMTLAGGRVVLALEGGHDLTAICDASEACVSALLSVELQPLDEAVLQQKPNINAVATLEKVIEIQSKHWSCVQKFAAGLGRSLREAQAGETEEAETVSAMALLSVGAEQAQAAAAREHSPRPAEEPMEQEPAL

[18] = target: Histone deacetylase 11 (Homo sapiens) (UniProt Q96DB2); assay: Inhibition of HDAC11 (unknown origin) assessed as remaining activity using (Boc-(Trifluoroacetyl) Lysine-AMC) fluorogenic peptide as substrate preincubated for 10 mins followed by substrate addition for 30 mins in presence of ATP by fluoroscence assay relative to control; conditions: time 40.0 min
TMD8 [19] = assay: Induction of apoptosis in human TMD8 cells assessed as increase in cleaved caspase-3 levels at 2.5 to 10 uM after 24 hrs by Western blot analysis; assay type: functional, cell-based; conditions: dose 2.5-10 µM
Histone deacetylase 1 [20] = target: T2, Histone deacetylase 1 (Homo sapiens, UniProt Q13547); assay: Inhibition of HDAC1 in human TMD8 cells assessed as histone H3 acetylation after 24 hrs by Western blot analysis; assay type: cell-based; conditions: dose 2.5-10 µM, DDE = dose-dependent effect
T2 sequence (Q13547 whole entry): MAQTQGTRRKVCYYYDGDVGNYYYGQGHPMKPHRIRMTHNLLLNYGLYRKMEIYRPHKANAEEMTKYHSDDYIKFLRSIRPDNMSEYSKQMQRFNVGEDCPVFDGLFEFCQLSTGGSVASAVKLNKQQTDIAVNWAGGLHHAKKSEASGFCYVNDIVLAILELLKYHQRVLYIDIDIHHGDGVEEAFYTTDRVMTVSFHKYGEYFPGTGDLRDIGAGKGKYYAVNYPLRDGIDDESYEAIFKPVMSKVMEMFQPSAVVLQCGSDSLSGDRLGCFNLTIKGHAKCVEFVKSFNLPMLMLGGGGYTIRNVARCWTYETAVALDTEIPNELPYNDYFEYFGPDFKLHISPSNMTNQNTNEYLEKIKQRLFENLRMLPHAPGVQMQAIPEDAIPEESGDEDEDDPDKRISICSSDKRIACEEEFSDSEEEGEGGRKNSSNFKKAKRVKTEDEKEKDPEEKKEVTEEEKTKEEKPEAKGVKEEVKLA

Histone deacetylase 1 [21] = target: T2, Histone deacetylase 1; assay: Inhibition of HDAC1 in human TMD8 cells assessed as histone H4 acetylation after 24 hrs by Western blot analysis; assay type: cell-based; conditions: dose 2.5-10 µM, DDE = dose-dependent effect
[22] = target: Histone deacetylase 9 (Homo sapiens) (UniProt Q9UKV0); assay: Inhibition of HDAC9 (unknown origin) assessed as remaining enzyme activity at 1 uM using Boc-(Trifluoroacetyl) Lysine-AMC fluorogenic peptide as substrate preincubated for 10 mins followed by substrate addition for 30 mins in presence of ATP by fluoroscence based assay relative to control; conditions: time 40.0 min
Histone deacetylase 9 (Homo sapiens), sequence (Q9UKV0 whole entry): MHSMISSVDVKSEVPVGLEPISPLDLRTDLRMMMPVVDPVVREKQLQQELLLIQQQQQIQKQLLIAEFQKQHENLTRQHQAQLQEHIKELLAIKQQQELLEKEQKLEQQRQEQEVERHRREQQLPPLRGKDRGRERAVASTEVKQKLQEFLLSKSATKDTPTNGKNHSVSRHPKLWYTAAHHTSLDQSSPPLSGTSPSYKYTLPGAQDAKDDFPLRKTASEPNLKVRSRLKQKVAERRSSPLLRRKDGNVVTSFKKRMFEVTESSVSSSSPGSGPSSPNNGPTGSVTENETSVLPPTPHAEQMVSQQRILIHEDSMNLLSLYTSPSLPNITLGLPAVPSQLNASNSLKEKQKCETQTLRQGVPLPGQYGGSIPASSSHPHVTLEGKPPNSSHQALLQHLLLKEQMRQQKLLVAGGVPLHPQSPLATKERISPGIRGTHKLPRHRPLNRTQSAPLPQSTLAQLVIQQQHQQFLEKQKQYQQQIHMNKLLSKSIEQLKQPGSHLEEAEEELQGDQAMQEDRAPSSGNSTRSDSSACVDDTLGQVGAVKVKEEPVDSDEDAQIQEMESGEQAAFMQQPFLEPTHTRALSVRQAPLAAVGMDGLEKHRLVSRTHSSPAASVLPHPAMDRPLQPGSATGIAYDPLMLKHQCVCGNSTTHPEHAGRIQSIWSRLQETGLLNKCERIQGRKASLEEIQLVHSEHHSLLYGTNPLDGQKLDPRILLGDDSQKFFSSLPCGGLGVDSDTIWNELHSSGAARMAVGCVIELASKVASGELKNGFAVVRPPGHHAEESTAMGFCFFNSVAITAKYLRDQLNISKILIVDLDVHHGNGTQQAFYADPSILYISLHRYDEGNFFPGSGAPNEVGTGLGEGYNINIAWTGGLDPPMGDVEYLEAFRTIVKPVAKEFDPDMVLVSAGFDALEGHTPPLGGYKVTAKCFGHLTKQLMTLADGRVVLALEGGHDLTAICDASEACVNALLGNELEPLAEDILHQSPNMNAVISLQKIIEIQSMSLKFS

TMD8 [23] = assay: Induction of cell cycle arrest in human TMD8 cells assessed as accumulation of cells at G2/M phase incubated for 24 hrs by propidium iodide based flow cytometric analysis; assay type: functional; conditions: dose 0.25-1 µM, DDE = dose-dependent effect
Histone deacetylase 2 [24] = target: T3, Histone deacetylase 2 (Homo sapiens, UniProt Q92769); assay: Inhibition of HDAC2 in human TMD8 cells assessed as histone H4 acetylation after 24 hrs by Western blot analysis; assay type: cell-based; conditions: dose 2.5-10 µM, DDE = dose-dependent effect
T3 sequence (Q92769 whole entry): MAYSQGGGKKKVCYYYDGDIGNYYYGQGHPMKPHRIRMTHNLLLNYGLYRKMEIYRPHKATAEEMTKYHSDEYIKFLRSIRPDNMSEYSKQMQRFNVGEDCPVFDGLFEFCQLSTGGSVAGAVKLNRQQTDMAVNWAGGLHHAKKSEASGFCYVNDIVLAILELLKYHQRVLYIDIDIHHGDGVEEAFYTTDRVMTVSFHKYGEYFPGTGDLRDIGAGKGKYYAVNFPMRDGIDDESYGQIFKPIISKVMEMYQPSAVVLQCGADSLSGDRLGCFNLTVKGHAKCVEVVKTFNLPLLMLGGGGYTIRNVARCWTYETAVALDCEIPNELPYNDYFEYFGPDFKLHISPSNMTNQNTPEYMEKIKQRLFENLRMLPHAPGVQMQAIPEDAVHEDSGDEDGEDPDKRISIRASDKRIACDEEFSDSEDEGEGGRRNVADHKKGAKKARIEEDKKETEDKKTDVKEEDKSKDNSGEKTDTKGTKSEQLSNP

TMD8 [25] = assay: Induction of apoptosis in human TMD8 cells assessed as increase in cleaved PARP levels at 2.5 to 10 uM after 24 hrs by Western blot analysis; assay type: functional, cell-based; conditions: dose 2.5-10 µM
TMD8 [26] = assay: Induction of apoptosis in human TMD8 cells incubated for 24 hrs by propidium iodide based flow cytometric analysis; assay type: functional, cell-based; conditions: dose 0.25-1 µM, DDE = dose-dependent effect
Histone deacetylase 2 [27] = target: T3, Histone deacetylase 2; assay: Inhibition of HDAC2 in human TMD8 cells assessed as histone H3 acetylation after 24 hrs by Western blot analysis; assay type: cell-based; conditions: dose 2.5-10 µM, DDE = dose-dependent effect
Histone deacetylase 3 [28] = target: T1, Histone deacetylase 3; assay: Inhibition of HDAC3 in human TMD8 cells assessed as histone H3 acetylation after 24 hrs by Western blot analysis; assay type: cell-based; conditions: dose 2.5-10 µM, DDE = dose-dependent effect
Mus musculus = assay: Upregulation of acetylated-H3 levels in CB.17 SCID mouse xenografted with human TMD8 cells at 50 to 100 mg/kg/day, po measured after 21 days by Western blot analysis; assay type: functional, organism-based; conditions: dose 50-100 mg/kg/day, time 21.0 day
[29] = target: Histone deacetylase 4 (Homo sapiens) (UniProt P56524); assay: Inhibition of HDAC4 (unknown origin) assessed as remaining enzyme activity at 1 uM using Boc-(Trifluoroacetyl) Lysine-AMC fluorogenic peptide as substrate preincubated for 10 mins followed by substrate addition for 30 mins in presence of ATP by fluoroscence based assay relative to control; conditions: time 40.0 min
[30] = target: Histone deacetylase 7 (Homo sapiens) (UniProt Q8WUI4); assay: Inhibition of HDAC7 (unknown origin) assessed as remaining enzyme activity at 1 uM using Boc-(Trifluoroacetyl) Lysine-AMC fluorogenic peptide as substrate preincubated for 10 mins followed by substrate addition for 30 mins in presence of ATP by fluoroscence based assay relative to control; conditions: time 40.0 min
[31] = target: Protein deacetylase HDAC6 (Homo sapiens) (UniProt Q9UBN7); assay: Inhibition of HDAC6 (unknown origin) assessed as remaining enzyme activity at 1 uM using RHKK(Ac)AMC fluorogenic peptide as substrate preincubated for 10 mins followed by substrate addition for 1 hr in presence of ATP by fluoroscence based assay relative to control; conditions: time 70.0 min
Protein deacetylase HDAC6 (Homo sapiens), sequence (Q9UBN7 whole entry): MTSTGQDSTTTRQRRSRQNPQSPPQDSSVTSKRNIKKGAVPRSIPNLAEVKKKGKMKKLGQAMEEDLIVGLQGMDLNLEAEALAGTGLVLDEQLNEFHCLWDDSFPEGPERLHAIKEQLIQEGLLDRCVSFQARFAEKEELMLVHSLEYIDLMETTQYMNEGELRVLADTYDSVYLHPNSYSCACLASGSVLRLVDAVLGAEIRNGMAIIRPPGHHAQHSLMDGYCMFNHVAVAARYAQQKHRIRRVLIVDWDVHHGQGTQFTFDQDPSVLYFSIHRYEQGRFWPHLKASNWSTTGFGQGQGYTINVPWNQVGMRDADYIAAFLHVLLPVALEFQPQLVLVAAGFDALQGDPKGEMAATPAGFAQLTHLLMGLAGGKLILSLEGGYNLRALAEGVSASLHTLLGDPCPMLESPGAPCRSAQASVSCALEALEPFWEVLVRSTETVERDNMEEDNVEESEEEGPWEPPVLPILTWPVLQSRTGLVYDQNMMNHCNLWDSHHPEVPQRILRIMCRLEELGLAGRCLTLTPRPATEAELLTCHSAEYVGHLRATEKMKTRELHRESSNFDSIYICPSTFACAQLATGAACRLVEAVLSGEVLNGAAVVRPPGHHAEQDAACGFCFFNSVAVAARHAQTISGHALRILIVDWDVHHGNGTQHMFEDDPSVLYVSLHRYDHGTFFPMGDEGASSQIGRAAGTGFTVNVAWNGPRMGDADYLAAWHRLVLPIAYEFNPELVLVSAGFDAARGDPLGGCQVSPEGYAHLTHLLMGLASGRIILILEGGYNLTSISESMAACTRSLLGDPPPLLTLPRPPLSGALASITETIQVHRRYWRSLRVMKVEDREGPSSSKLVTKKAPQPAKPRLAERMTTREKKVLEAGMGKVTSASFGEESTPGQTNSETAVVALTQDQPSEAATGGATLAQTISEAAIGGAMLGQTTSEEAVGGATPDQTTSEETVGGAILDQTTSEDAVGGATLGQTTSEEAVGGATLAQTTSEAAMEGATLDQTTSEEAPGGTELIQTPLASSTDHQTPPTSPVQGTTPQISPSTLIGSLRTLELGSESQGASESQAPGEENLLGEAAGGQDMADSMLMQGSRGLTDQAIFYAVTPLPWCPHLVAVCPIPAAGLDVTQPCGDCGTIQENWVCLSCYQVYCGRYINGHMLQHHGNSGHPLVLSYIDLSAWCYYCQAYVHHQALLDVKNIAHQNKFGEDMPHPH

TMD8 [32] = assay: In vivo antitumor activity against TMD8 cells xenografted in CB.17 SCID mouse assessed as inhibition of tumor growth at 50 mg/kg/day, po for 21 consecutive days measured every 3 days by Vernier caliper; assay type: functional, organism-based; conditions: Homo sapiens, time 21.0 day
TMD8 [33] = assay: Induction of apoptosis in human TMD8 cells assessed as cleavage of inactive caspase-3 at 2.5 to 10 uM after 24 hrs by Western blot analysis; assay type: functional, cell-based; conditions: dose 2.5-10 µM

Nc1cc(F)ccc1NC(=O)c1ccc(CNC(=O)/C=C/c2cccnc2)cc1 [TUCIDINOSTAT]
pIC50 (786-0): 6.20 | half-life [1]: 1.3 h | pIC50 (SU-DHL-2): 6.25 | pIC50 (MDA-MB-231 [2]): 5.02 | half-life [3]: 4 h | pIC50 (SK-OV-3): 5.07 | Intrinsic clearance in human liver microsomes [4]: 1.7 µL/min/mg | Activity (TMD8 [5]): 5.96% | pIC50 (HuT78): 5.62 | pIC50 (TMD8 [6]): 6.32 | Activity (A549 [7]): 96.6% | pIC50 (A549 [8]): 5.55 | pIC50 (NCI-H460): 5.63 | Activity (MDA-MB-231 [9]): 69.91% | pIC50 (CWR22R): 5.97 | t1/2 [10]: 6.27 h | AUC(0-inf) [11]: 1350 ng·h/mL | pIC50 (MOLT-4): 6.12 | pIC50 (HT-29): 5.22 | Cmax [12]: 1220 ng/mL | bioavailability [13]: 20.8% | MRT [14]: 4.2 h | pIC50 (DOHH-2): 6.28 | pIC50 (COLO-678): < 5.00 | AUC(0-inf) [15]: 3520 ng·h/mL | pIC50 (Rec1): 6.00 | Activity (HCT-116): 102.26% | pIC50 (CCRF-CEM): 6.08 | pIC50 (RS4-11): 6.22 | pIC50 (NCI-H441): 5.58

Nc1ccccc1NC(=O)c1ccc(CN2CCC/C(=C\c3ccccn3)C2=O)cc1
inhibition (Histone deacetylase 3 [16]): Dde | Activity (DLBCL): Active | Activity [17]: 84.4% | Activity [18]: 92% | Activity (TMD8 [19]): Active | inhibition (Histone deacetylase 1 [20]): Dde | inhibition (Histone deacetylase 1 [21]): Dde | Activity [22]: 92.3% | Activity (TMD8 [23]): Dde | inhibition (Histone deacetylase 2 [24]): Dde | Activity (TMD8 [25]): Active | Activity (TMD8 [26]): Dde | inhibition (Histone deacetylase 2 [27]): Dde | inhibition (Histone deacetylase 3 [28]): Dde | Activity (Mus musculus): Active | Activity [29]: 81.2% | Activity [30]: 88.1% | Activity [31]: 96.9% | Activity (TMD8 [32]): Active | Activity (TMD8 [33]): Active
